# Experiments:
# oat, wild [1] = assay: Test A preemergence; type: in vivo, Avena fatua
# Procedure, shortened: (§1)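 Loam/sand soil; pre-em directed soil spray at planting, post-em spray at 1–2 leaf (2–10 cm). Compound in non-phytotoxic solvent + surfactant. Greenhouse 10 d; visual injury vs untreated, 0 = no effect, 100 = complete control.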
# pigweed, palmer [2] = assay: Test A preemergence; type: in vivo, Amaranthus palmeri
# Procedure, shortened: as §1
# horseweed = assay: Test A postemergence; type: in vivo, Erigeron canadensis; conditions: postemergence, 10 days, visual injury, 0 to 100 scale (0 no effect, 100 complete control)
# Procedure, shortened: as §1
# ragweed [3] = assay: Test A preemergence; type: in vivo, Ambrosia artemisiifolia
# Procedure, shortened: as §1
# wheat [4] = assay: Test A preemergence; type: in vivo, Triticum aestivum
# Procedure, shortened: as §1
# foxtail, giant [5] = assay: Test A postemergence; type: in vivo, Setaria faberi; conditions: postemergence, 10 days, visual injury, 0 to 100 scale (0 no effect, 100 complete control)
# Procedure, shortened: as §1
# oat, wild [6] = assay: Test A postemergence; type: in vivo, Avena fatua; conditions: 500 g ai/ha, postemergence, 10 days, visual injury, 0 to 100 scale (0 no effect, 100 complete control)
# Procedure, shortened: as §1
# wheat [7] = assay: Test A postemergence; type: in vivo, Triticum aestivum; conditions: 500 g ai/ha, postemergence, 10 days, visual injury, 0 to 100 scale (0 no effect, 100 complete control)
# Procedure, shortened: as §1
# blackgrass [8] = assay: Test A postemergence; type: in vivo, Alopecurus myosuroides
# Procedure, shortened: as §1
# corn [9] = assay: Test A postemergence; type: in vivo, Zea mays; conditions: postemergence, 10 days, visual injury, 0 to 100 scale (0 no effect, 100 complete control)
# Procedure, shortened: as §1
# ragweed [10] = assay: Test A postemergence; type: in vivo, Ambrosia artemisiifolia; conditions: 500 g ai/ha, postemergence, 10 days, visual injury, 0 to 100 scale (0 no effect, 100 complete control)
# Procedure, shortened: as §1
# sedge, umbrella = assay: Test B flooded paddy test; type: in vivo, Cyperus difformis; conditions: 250 g ai/ha, Flood, 13 days, 0 to 100 scale (0 no effect, 100 complete control)
# Procedure, shortened: (§2)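 Percent weed or crop control, judged by eye on a 0–100 scale 13 days post-treatment, reflects compound added to a 3 cm flood maintained over 2-leaf plants in the greenhouse. Missing entries are marked with a dash.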
# ryegrass, Italian [11] = assay: Test A postemergence; type: in vivo, Lolium multiflorum; conditions: 500 g ai/ha, postemergence, 10 days, visual injury, 0 to 100 scale (0 no effect, 100 complete control)
# Procedure, shortened: as §1
# corn [12] = assay: Test A preemergence; type: in vivo, Zea mays
# Procedure, shortened: as §1
# goosegrass [13] = assay: Test A preemergence; type: in vivo, Eleusine indica
# Procedure, shortened: as §1
# blackgrass [14] = assay: Test A preemergence; type: in vivo, Alopecurus myosuroides
# Procedure, shortened: as §1
# ducksalad = assay: Test B flooded paddy test; type: in vivo, Heteranthera limosa; conditions: 250 g ai/ha, Flood, 13 days, 0 to 100 scale (0 no effect, 100 complete control)
# Procedure, shortened: as §2
# rice = assay: Test B flooded paddy test; type: in vivo, Oryza sativa; conditions: 250 g ai/ha, Flood, 13 days, 0 to 100 scale (0 no effect, 100 complete control)
# Procedure, shortened: as §2
# ryegrass, Italian [15] = assay: Test A preemergence; type: in vivo, Lolium multiflorum
# Procedure, shortened: as §1
# foxtail, giant [16] = assay: Test A preemergence; type: in vivo, Setaria faberi
# Procedure, shortened: as §1
# goosegrass [17] = assay: Test A postemergence; type: in vivo, Eleusine indica; conditions: postemergence, 10 days, visual injury, 0 to 100 scale (0 no effect, 100 complete control)
# Procedure, shortened: as §1
# pigweed, palmer [18] = assay: Test A postemergence; type: in vivo, Amaranthus palmeri; conditions: 500 g ai/ha, postemergence, 10 days, visual injury, 0 to 100 scale (0 no effect, 100 complete control)
# Procedure, shortened: as §1
# soybean [19] = assay: Test A postemergence; type: in vivo, Glycine max; conditions: 500 g ai/ha, postemergence, 10 days, visual injury, 0 to 100 scale (0 no effect, 100 complete control)
# Procedure, shortened: as §1
# soybean [20] = assay: Test A preemergence; type: in vivo, Glycine max
# Procedure, shortened: as §1
# kochia [21] = assay: Test A postemergence; type: in vivo, Bassia scoparia; conditions: postemergence, 10 days, visual injury, 0 to 100 scale (0 no effect, 100 complete control)
# Procedure, shortened: as §1
# kochia [22] = assay: Test A preemergence; type: in vivo, Bassia scoparia
# Procedure, shortened: as §1
# barnyardgrass = assay: Test B flooded paddy test; type: in vivo, Echinochloa crus-galli; conditions: 250 g ai/ha, Flood, 13 days, 0 to 100 scale (0 no effect, 100 complete control)
# Procedure, shortened: as §2
# [23] = 125 g ai/ha, visual injury after 10 days, 0 to 100 scale, 0 is no effect, 100 is complete control
# [24] = 500 g ai/ha, 0 to 100 scale (0 no effect, 100 complete control), 10 days
smiles,measurement,setting,value
CCc1ccc(-n2cncn2)cc1C(=O)N1C[C@H](C)Oc2c(Cl)cccc21 [Compound 79],"Plant response rating, Oat, Wild","oat, wild [1]; [23]",90
same,"Plant response rating, Oat, Wild","oat, wild [1]; [24]",80
same,"Plant response rating, Pigweed, Palmer","pigweed, palmer [2]; [23]",40
same,"Plant response rating, Pigweed, Palmer","pigweed, palmer [2]; [24]",100
same,"Plant response rating, Horseweed",horseweed; 125 g ai/ha,0
same,"Plant response rating, Horseweed",horseweed; 500 g ai/ha,20
same,"Plant response rating, Ragweed",ragweed [3]; [23],0
same,"Plant response rating, Ragweed",ragweed [3]; [24],30
same,"Plant response rating, Wheat",wheat [4]; [23],10
same,"Plant response rating, Wheat",wheat [4]; [24],50
same,"Plant response rating, Foxtail, Giant","foxtail, giant [5]; 125 g ai/ha",90
same,"Plant response rating, Foxtail, Giant","foxtail, giant [5]; 500 g ai/ha",90
same,"Plant response rating, Oat, Wild","oat, wild [6]",80
same,"Plant response rating, Wheat",wheat [7],50
same,"Plant response rating, Blackgrass","blackgrass [8]; 125 g ai/ha, postemergence, 10 days, visual injury, 0 to 100 scale (0 no effect, 100 complete control)",80
same,"Plant response rating, Blackgrass","blackgrass [8]; 500 g ai/ha, Postemergence, 0 to 100 scale",80
same,"Plant response rating, Corn",corn [9]; 125 g ai/ha,40
same,"Plant response rating, Corn",corn [9]; 500 g ai/ha,80
same,"Plant response rating, Ragweed",ragweed [10],50
same,"Plant response rating, Sedge, Umbrella","sedge, umbrella",98
same,"Plant response rating, Ryegrass, Italian","ryegrass, Italian [11]",100
same,"Plant response rating, Corn",corn [12]; [23],20
same,"Plant response rating, Corn",corn [12]; [24],40
same,"Plant response rating, Goosegrass",goosegrass [13]; [23],100
same,"Plant response rating, Goosegrass",goosegrass [13]; [24],100
same,"Plant response rating, Blackgrass",blackgrass [14]; [23],50
same,"Plant response rating, Blackgrass",blackgrass [14]; [24],70
same,"Plant response rating, Ducksalad",ducksalad,45
same,"Plant response rating, Rice",rice,0
same,"Plant response rating, Ryegrass, Italian","ryegrass, Italian [15]; [23]",60
same,"Plant response rating, Ryegrass, Italian","ryegrass, Italian [15]; [24]",100
same,"Plant response rating, Foxtail, Giant","foxtail, giant [16]; [23]",100
same,"Plant response rating, Foxtail, Giant","foxtail, giant [16]; [24]",100
same,"Plant response rating, Goosegrass",goosegrass [17]; 125 g ai/ha,20
same,"Plant response rating, Goosegrass",goosegrass [17]; 500 g ai/ha,80
same,"Plant response rating, Pigweed, Palmer","pigweed, palmer [18]",90
same,"Plant response rating, Soybean",soybean [19],100
same,"Plant response rating, Soybean",soybean [20]; [23],60
same,"Plant response rating, Soybean",soybean [20]; [24],90
same,"Plant response rating, Kochia",kochia [21]; 125 g ai/ha,30
same,"Plant response rating, Kochia",kochia [21]; 500 g ai/ha,60
same,"Plant response rating, Kochia",kochia [22]; [23],20
same,"Plant response rating, Kochia",kochia [22]; [24],40
same,"Plant response rating, Barnyardgrass",barnyardgrass,0
